{"source": "patent US20240148821A1", "about": "“PHARMACEUTICAL USE OF CYCLIC PEPTIDE COMPOUND” (CHUGAI SEIYAKU KABUSHIKI KAISHA, priority 2021, published 2024)", "note": "Numbered stars: 1 amine (or outer) side, 2 acyl side, 3 side chain; on linkers, the order of the positions; unused ones are H or OH. Bridge positions count the residues as written; N and C are the ends. Square brackets hold non-standard residues; d marks the D form. Peptide text beside a SMILES is read from it. * marks the point of attachment. hPhe(3-Cl-4-CF3) = N[C@@H](CCc1ccc(C(F)(F)F)c(Cl)c1)C(=O)O; X36 = O=C([C@H](Cc1cc(F)cc(Cl)c1)N[*:1])[*:2]; NMePhe(3-Cl) = CN[C@@H](Cc1cccc(Cl)c1)C(=O)O; NMePhe(4-Cl) = CN[C@@H](Cc1ccc(Cl)cc1)C(=O)O; NMePhe(4-Me) = CN[C@@H](Cc1ccc(C)cc1)C(=O)O; NMePhe(3-F) = CN[C@@H](Cc1cccc(F)c1)C(=O)O; NMeGly(cPent) = CN[C@H](C(=O)O)C1CCCC1; Phe(3-I) = N[C@@H](Cc1cccc(I)c1)C(=O)O; NMeCha = CN[C@@H](CC1CCCCC1)C(=O)O; NMeGly(cPr) = CN[C@H](C(=O)O)C1CC1; NMeChg = CN[C@H](C(=O)O)C1CCCCC1; NMeD = CN[C@@H](CC(=O)O)C(=O)O; NMeL = CN[C@@H](CC(C)C)C(=O)O; NEtAla = CCN[C@@H](C)C(=O)O; NMeNva = CCC[C@H](NC)C(=O)O; NMeV = CN[C@H](C(=O)O)C(C)C; d(β3hA) = C[C@@H](N)CC(=O)O; NMeA = CN[C@@H](C)C(=O)O; NMeAib = CNC(C)(C)C(=O)O; Nle = CCCC[C@H](N)C(=O)O; Piperidide = C1CCN(*)CC1; Ac5c = NC1(C(=O)O)CCCC1; Aze = O=C(O)[C@@H]1CCN1; NcPrGly = O=C(O)CNC1CC1; Sar = CNCC(=O)O"}
{"test_system": "Human pancreatic cancer cell line AsPC-1 (G12D mutation Kras)", "assay": "AsPC-1 cell growth inhibition (AsPC-1 CGI)", "format": "cell-based", "conditions": "read-out: AsPC-1 cell growth inhibition, 50% growth inhibitory concentration (IC50 value); 96 hours, CellTiter-Glo, values classified in ranges", "units": {"IC50": "nM"}, "description": "Test compounds were serially dilated with dimethyl sulfoxide, and 200 nL was then dispensed to a U-bottom 96-well plate using Labcyte Echo. […] The cell suspension was dispensed to a. plate containing a test compound at 100 μL per well and incubated at 37° C. in a 5% carbon dioxide gas incubator. 96 hours later, 80 μL of CellTiter-Glo (Promega) was added to each well and fluorescence was measured."}
{"compound": "CC[C@H](C)[C@@H]1NC(=O)[C@H](C)N(C)C(=O)C[C@@H](C)NC(=O)[C@H](C2CCCC2)N(C)C(=O)C2(CCCC2)NC(=O)[C@@H]2CCCN2C(=O)[C@H](CCc2ccc(C(F)(F)F)c(Cl)c2)NC(=O)CN(C)C(=O)[C@H](Cc2cccc(Cl)c2)N(C)C(=O)[C@@H]2CCCN2C(=O)CN(C)C1=O", "note": "[Compound 186] (cyclo([Ac5c][NMeGly(cPent)][d(β3hA)][NMeA]I[Sar]P[NMePhe(3-Cl)][Sar][hPhe(3-Cl-4-CF3)]P))", "IC50": "> 500"}
{"compound": "CCC[C@H]1C(=O)N(C)CC(=O)N[C@@H](CCc2ccc(C(F)(F)F)c(Cl)c2)C(=O)N2CCC[C@H]2C(=O)NC2(CCCC2)C(=O)N(C)[C@@H](C2CCCCC2)C(=O)N(C)[C@H](C(=O)N2CCCCC2)CC(=O)N(C)[C@@H](CC(C)C)C(=O)N[C@@H]([C@@H](C)CC)C(=O)N(C)CC(=O)N(C)CC(=O)N1C", "note": "[Compound 187] ([NMeL]I[Sar][Sar][NMeNva][Sar][hPhe(3-Cl-4-CF3)]P[Ac5c][NMeChg][NMeD]-Piperidide; lactam N-11)", "IC50": "> 500"}
{"compound": "CC[C@H](C)[C@@H]1NC(=O)[C@H](CC(C)C)N(C)C(=O)C[C@@H](C(=O)N2CCCCC2)N(C)C(=O)[C@H](CC(C)C)NC(=O)C(C)(C)N(C)C(=O)[C@H](Cc2ccc(OC)cc2)NC(=O)[C@H](Cc2cccc(I)c2)NC(=O)CN(C)C(=O)[C@H](Cc2ccc(C)cc2)N(C)C(=O)[C@@H]2CCN2C(=O)CN(C)C1=O", "note": "[Compound 188] ([NMeL]I[Sar][Aze][NMePhe(4-Me)][Sar][Phe(3-I)]Y(Me)[NMeAib]L[NMeD]-Piperidide; lactam N-11)", "IC50": "> 500"}
{"compound": "CC[C@H](C)[C@@H]1NC(=O)[C@H](CC(C)C)N(C)C(=O)C[C@@H](C(=O)N(C)C)N(C)C(=O)[C@H](C2CCCC2)N(C)C(=O)C2(CCCC2)NC(=O)[C@@H](C)NC(=O)[C@H](CCc2ccc(C(F)(F)F)c(Cl)c2)NC(=O)CN(C)C(=O)[C@H](CC2CCCCC2)N(C)C(=O)[C@@H]2CCN2C(=O)[C@H](C)N(C)C1=O", "note": "[Compound 191] ([NMeL]I[NMeA][Aze][NMeCha][Sar][hPhe(3-Cl-4-CF3)][dA][Ac5c][NMeGly(cPent)][NMeD]-NMe2; lactam N-11)", "IC50": "> 500"}
{"compound": "CC[C@H](C)[C@@H]1NC(=O)[C@H](C)N(C)C(=O)C[C@@H](C)NC(=O)[C@H](C2CCCC2)N(C)C(=O)C2(CCCC2)NC(=O)[C@@H]2CCCN2C(=O)[C@H](CCc2ccc(C(F)(F)F)c(Cl)c2)NC(=O)CN(C)C(=O)[C@H](Cc2cccc(F)c2)N(C)C(=O)[C@@H]2CCCN2C(=O)CN(C)C1=O", "note": "[Compound 194] (cyclo([Ac5c][NMeGly(cPent)][d(β3hA)][NMeA]I[Sar]P[NMePhe(3-F)][Sar][hPhe(3-Cl-4-CF3)]P))", "IC50": "> 500"}
{"compound": "CC[C@H](C)[C@@H]1NC(=O)[C@H](C)N(CC)C(=O)C[C@@H](C)NC(=O)[C@H](C(C)C)N(C)C(=O)C2(CCCC2)NC(=O)[C@@H]2CCCN2C(=O)[C@H](CCc2ccc(C(F)(F)F)c(Cl)c2)NC(=O)CN(C)C(=O)[C@H](CC2CCCCC2)N(C)C(=O)CN(C)C(=O)CN(C)C1=O", "note": "[Compound 196] (cyclo([Ac5c][NMeV][d(β3hA)][NEtAla]I[Sar][Sar][NMeCha][Sar][hPhe(3-Cl-4-CF3)]P))", "IC50": "> 500"}
{"compound": "CC[C@H](C)[C@@H]1NC(=O)[C@H](CC(C)C)N(C)C(=O)C[C@@H](C(=O)N2CCCCC2)N(C)C(=O)[C@H](C2CC2)N(C)C(=O)C2(CCCC2)NC(=O)[C@@H]2CCCN2C(=O)[C@H](CCc2ccc(C(F)(F)F)c(Cl)c2)NC(=O)CN(C)C(=O)[C@H](CC2CCCCC2)N(C)C(=O)CN(C)C(=O)CN(C)C1=O", "note": "[Compound 197] ([NMeL]I[Sar][Sar][NMeCha][Sar][hPhe(3-Cl-4-CF3)]P[Ac5c][NMeGly(cPr)][NMeD]-Piperidide; lactam N-11)", "IC50": "> 500"}
{"compound": "CCCC[C@@H]1NC(=O)[C@H](Cc2cc(F)cc(Cl)c2)NC(=O)CN(C)C(=O)[C@H](Cc2ccc(Cl)cc2)N(C)C(=O)CN(C)C(=O)CN(C)C(=O)[C@H]([C@@H](C)CC)NC(=O)[C@H](CC(C)C)N(C)C(=O)C[C@@H](C(=O)N2CCCCC2)N(C)C(=O)[C@H](CC(C)C)NC(=O)C(C)(C)N(C)C1=O", "note": "[Compound 202] ([NMeL]I[Sar][Sar][NMePhe(4-Cl)][Sar][X36][Nle][NMeAib]L[NMeD]-Piperidide; lactam N-11)", "IC50": "> 500"}
{"compound": "CC[C@H](C)[C@@H]1NC(=O)[C@H](CC(C)C)N(C)C(=O)C[C@@H](C)NC(=O)[C@H](C(C)C)N(C)C(=O)C2(CCCC2)NC(=O)[C@@H]2CCCN2C(=O)[C@H](CCc2ccc(C(F)(F)F)c(Cl)c2)NC(=O)CN(C2CC2)C(=O)[C@H](CC2CCCCC2)N(C)C(=O)CN(C)C(=O)CN(C)C1=O", "note": "[Compound 204] (cyclo([Ac5c][NMeV][d(β3hA)][NMeL]I[Sar][Sar][NMeCha][NcPrGly][hPhe(3-Cl-4-CF3)]P))", "IC50": "> 500"}
